Entries after “also recorded” stand apart in the source; their conditions may differ.
What was measured:
[1] = test system: PI3K pathway (phosphorylation levels of AKT) in obscurin-knockdown MCF10A cells; experiment: Western blot of AKT phosphorylation after PI3K inhibitor treatment; type: cell-based
Experimental: (§1) Cell lysates were prepared in radioimmuno-precipitation assay (RIPA) buffer supplemented with cocktails of protease inhibitors (Roche, Mannheim, Germany), and phosphatase inhibitors ([…], 100 mM Sodium Flouride, 115 mM Sodium Molybdate, 100 mM Sodium Orthovanadate, 400 mM Sodium Tartrate Dihydrate, 100 mM β-Glycerophosphate, 100 mM Sodium Pyrophosphate, and 10 mM EGTA). Protein lysates were electrophoresed on SDS-NuPAGE gel (Thermo Fisher Scientific, Waltham, Mass.), transferred to nitrocellulose membranes, and probed with primary antibodies as specified in the text, and the appropriate […] secondary antibodies (Jackson ImmunoResearch Laboratories). Immunoreactive bands were visualized using AMERSHAM ECL prime western blotting detection reagent (GE Healthcare Life Sciences), and densitometry was performed with Image J software. Treatment of cells followed by lysate preparation and immunoblotting analysis was repeated at least three independent times.
(§2) To verify the effectiveness of the two inhibitors in suppressing the PI3K pathway, whether the phosphorylation levels of AKT were reduced following treatment was examined. […] Whether inhibition of PI3K reverses epithelial to mesenchymal transition in obscurin-knockdown cells was evaluated.

[2] = test system: obscurin-knockdown MCF10A cells; experiment: Western blot of epithelial and mesenchymal (EMT) proteins after PI3K inhibitor treatment; type: cell-based
Experimental: as §1, §2

[3] = test system: obscurin-knockdown MCF10A cells; experiment: Mammosphere culture in ultra-low attachment conditions; type: cell-based; design: mammosphere formation: dose or concentration left out as unconfirmed; settings: for reduction in mammosphere formation: spheres ≧100 μm
Experimental: Single MCF10A cells stably transduced with obscurin shRNA were plated in ultralow attachment plates (Corning, Lowell, Mass., USA) at a density of 10,000 cells/mL in 2 mL serum-free growth media (DMEM/F12 with GlutaMAX™), supplemented with insulin (10 μg/mL), hydrocortisone (0.5 μg/mL), cholera toxin (100 ng/mL), epidermal growth factor (20 ng/mL), 1% penicillin-streptomycin and puromycin (1.5 μg/mL). Twenty-four hours following initial plating, cell cultures were supplemented with 2 mL serum-free growth media that contained the indicated concentration of LY294002, BKM120, or DMSO vehicle control every day for 10 days at which time point spheres were measured and those ≧100 μm were counted as tumor spheres.

[4] = test system: adherent MCF10A obscurin-knockdown or scramble control cells; experiment: Cell viability, AlamarBlue assay; type: cell-based; settings: different concentrations of BKM120, 24 h
Experimental: (§3) Cell viability of MCF10A obscurin-knockdown and scramble control cells treated with the specified concentrations of LY294002 and BKM120 inhibitors or vehicle DMSO for 24 h was measured using the AlamarBlue assay (Life Technologies) (9). In brief, the AlamarBlue reagent was added to the cell culture at 10% v/v and incubated for 16 h at 37° C., 5% CO2. The percentage (%) of AlamarBlue reduction was determined by measuring absorbance at 550 and 620 nm. Data are presented as the percentage of AlamarBlue reduced per number of cells.

[5] = test system: obscurin-knockdown MCF10A cells; experiment: Wound healing assay; type: cell-based; settings: DMSO vehicle ≧20%
Experimental: Wound healing was measured by growing confluent MCF10A cell monolayers stably expressing obscurin shRNA in six-well tissue culture dishes (Corning). A scrape was made through the monolayer with a sterile plastic pipette tip and fresh media containing LY294002, BKM120, or DMSO vehicle control was added at the indicated concentrations. Images were taken with an inverted microscope (10× objective) at time 0 h and after a 6 h incubation period at 37° C., 5% CO2. Migration was expressed as the average of the difference between the measurement at time zero and 6 h obtained from 3 independent experiments.

[6] = test system: obscurin-knockdown MCF10A cells; experiment: Microchannel single cell migration; type: cell-based; design: dose or concentration left out as unconfirmed
Experimental: The microchannel device was fabricated by standard lithography and coated with 20 μg/mL collagen type I (BD Biosciences, San Jose, Calif.) (12-16). Cells were trypsinized, resuspended in serum-containing media to neutralize the trypsin, and subsequently washed in serum-free media. A suspension of 5×10^4 cells was added to the inlet port, and cells were transported along the seeding channel by pressure-driven flow. Within 5 min, the cell suspension was removed and replaced with 100 μL of serum-free media containing the specified concentrations of LY294002, BKM120, or DMSO vehicle control. Serum-containing media with the indicated concentrations of LY294002, BKM120, or DMSO was added to the top-most inlet port, thus forming a chemoattractant gradient. Chambers were placed in an enclosed, humidified microscope stage at 5% CO2 and 37° C. (TIZ, Tokai Hit Co., Japan or Okolab, Italy). […] Instantaneous cell velocity was calculated by dividing each interval displacement by the time interval (20 min), and the mean velocity for a given cell was computed by averaging instantaneous velocities for all time intervals. Chemotactic index was calculated by dividing the end-to-end displacement by the total path length of the cell. […]

[7] = test system: obscurin-knockdown MCF10A cells; experiment: Matrigel invasion assay; type: cell-based; settings: dose-dependent, 16 h
Experimental: Invasion was measured by adding 250,000 cells suspended in 0.5 mL growth media containing the specified concentration of LY294002, BKM120, or DMSO vehicle control to the upper chamber of a Matrigel-coated invasion chamber (BD Biosciences, San Jose, Calif.). The lower chamber contained growth media supplemented with 10% FBS. The inserts were incubated at 37° C., 5% CO2 for 16 h. At the end of the 16 h incubation period, the cells that had invaded in the lower chamber were fixed and stained with 0.5% crystal violet in 20% methanol. The number of invaded cells was quantified by counting at least 6 random fields from 3 independent experiments under an inverted light microscope (Olympus IX51) with a 10× objective.

[8] = test system: MCF10A obscurin-knockdown cells; experiment: Bright-field microscopy of cell morphology and cell-cell junctions; type: cell-based; settings: 1 mM BKM120
Source text: Taken together, these findings indicate that blockade of the PI3K pathway in obscurin-depleted breast epithelial cells via pharmacological treatment or molecular means effectively reverses epithelial to mesenchymal transition.

[9] = Cell viability, AlamarBlue assay; type: cell-based; settings: human, adherent MCF10A obscurin-knockdown or scramble control cells; 25 µM LY294002, 24 h; read-out: decrease in cell viability (reduction of AlamarBlue)
Experimental: as §3

control GST-protein = molecular target: T1, control GST-protein (UniProt P08515 1-218 = GST); experiment: GST pull-down on glutathione-Sepharose beads, immunoblot with His-tag antibody
T1 construct: Negative control in the GST pull-down; also called GST-alone
T1 sequence (P08515 whole entry): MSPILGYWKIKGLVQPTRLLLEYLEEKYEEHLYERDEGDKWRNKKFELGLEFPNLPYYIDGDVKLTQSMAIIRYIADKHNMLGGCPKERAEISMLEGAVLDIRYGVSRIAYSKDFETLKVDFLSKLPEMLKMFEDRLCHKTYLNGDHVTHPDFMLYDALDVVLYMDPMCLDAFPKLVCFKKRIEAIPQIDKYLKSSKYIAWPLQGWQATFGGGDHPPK
Experimental: GST-pull down assays were performed (19, 20). Equivalent amounts of control GST-protein and GST-obscurin-PH were bound to glutathione-Sepharose beads and incubated with 3 mg/mL of His-tagged PI3K/p85-SH3 protein overnight at 4° C. in pull-down buffer (50 mM Tris, pH 7.5, 120 mM NaCl, 10 mM NaN3, 2 mM DTT, and 0.5% Tween). At the end of the incubation period, beads were washed five times with wash buffer (PBS with 10 mM NaN3 and 0.1% Tween), and bound proteins were eluted with 2× LDS buffer (Invitrogen), followed by boiling at 95° C. for 10 min and separation on a 4-12% bis-Tris gel. A His6-antibody (sc-803, Santa Cruz Biotechnology) was used for detection of immunoreactive bands with the Tropix chemiluminescence detection kit (Applied Biosystems).

GST-obscurin-PH = molecular target: T2, GST-obscurin-PH (human, UniProt Q5VST9 5895-6004); experiment: SPR, Biacore 3000; GST-obscurin-PH immobilized on CM5 chip, HIS-PI3K/p85-SH3 as analyte at 8-250 nM; 1:1 Langmuir model
T2 construct: domain: Pleckstrin Homology (PH) domain; Expressed in bacteria, about 37 kDa; also called GST-obscurin-PH domain; recombinant obscurin-PH domain fused to GST; not shown: glutathione-S-transferase (GST) tag encoded by the PGEX vector (GE Healthcare)
T2 sequence (looked up): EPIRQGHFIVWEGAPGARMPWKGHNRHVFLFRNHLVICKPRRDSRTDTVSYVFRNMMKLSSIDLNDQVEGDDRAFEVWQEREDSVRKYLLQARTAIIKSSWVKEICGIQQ
Experimental: Surface plasmon resonance was performed using a BiaCore 3000 instrument as described (6, 19, 21). In particular, the GST-obscurin-PH domain was used as ligand and was immobilized on a carboxymethyl-dextran sensor (CM5) chip, while the HIS-PI3K-p85/SH3 domain was used as analyte at varying concentrations ranging from 8-250 nM. The flow rate for analyte injection was 20 μl/min. For each analyte concentration, association was measured for 180 sec and dissociation was measured over another 180 sec. Data were evaluated with the 1:1 Langmuir model and the Heterogeneous Ligand model (BIAevaluation Software 3.1, Biacore). The association (kₐ, M⁻¹ s⁻¹) and dissociation (kd, s⁻¹) rate constants as well as the association (KA, M⁻¹) and dissociation (KD, M) equilibrium constants were determined.

## Nc1cc(C(F)(F)F)c(-c2cc(N3CCOCC3)nc(N3CCOCC3)n2)cn1 [BKM120]
[1]; 1 μM BKM120
  phosphorylation level of AKT at serine-473 compared to vehicle DMSO: 0.3 fold
  phosphorylation level of AKT at threonine-308 compared to vehicle DMSO: 0.1 fold
[2]; 1 μM BKM120
  expression level of E-cadherin (increase): 2.1 fold
  expression level of N-cadherin (decrease): 0.5 fold
  expression level of Slug (decrease): 0.3 fold
  expression level of Twist (decrease): 0.5 fold
  expression level of β-catenin (increase): 5 fold
[3]; 0.1 mM BMK120, 10 days
  reduction in mammosphere formation: 18%
[3]; 0.5 mM BMK120, 10 days
  reduction in mammosphere formation: 89%
[3]; BKM120, 10 days
  mammosphere formation: completely eliminated mammosphere formation
[4]
  cell viability (reduction of AlamarBlue) versus vehicle DMSO: No significant changes; also recorded: did not affect their survival and growth
[5]; 1 mM BKM120, after 6 h
  wound healing: ~6%
[6]; microchannels 6, 10, 20 and 50 mm wide
  migration speed compared to DMSO treated cells: significantly reduced migration
[6]; statistically significant in narrow channels (6 mm)
  chemotactic index (CI) relative to vehicle control: lower chemotactic index
[7]; BKM120 0-1 mM
  reduction in cell invasiveness relative to DMSO: 15-60%
[8]
  cell morphology and cell-cell junction formation: (re)acquired an epithelial appearance and were able to form cell-cell junctions

## O=c1cc(N2CCOCC2)oc2c(-c3ccccc3)cccc12 [LY294002]
[1]; 25 μM LY294002
  phosphorylation level of AKT at serine-473 compared to vehicle DMSO: 0.4 fold
  phosphorylation level of AKT at threonine-308 compared to vehicle DMSO: 0.4 fold
[2]; 25 μM LY294002
  expression level of E-cadherin (increase): 1.8 fold
  expression level of N-cadherin (decrease): 0.3 fold
  expression level of Slug (decrease): 0.6 fold
  expression level of Twist (decrease): 0.4 fold
  expression level of β-catenin (increase): 1.3 fold
[3]; 5 mM LY294002, 10 days
  reduction in mammosphere formation: 36%
[3]; 10 mM LY294002, 10 days
  reduction in mammosphere formation: 58%
[9]
  cytotoxicity at 24 h, 25 µM: ~5%
[5]; 25 mM LY294002, after 6 h
  wound healing: ~6%
[7]; LY294002 0-25 mM
  reduction in cell invasiveness relative to DMSO: 50-95%

B1: HIS-PI3K/p85-SH3 (other, human, UniProt O00459 4-80, looked up)
chain: PEGFQYRALYPFRRERPEDLELLPGDVLVVSRAALQALGVAEGGERCPQSVGWMPGLNERTRQRGDFPGTYVEFLGP
notes: domain: Src Homology 3 (SH3) domain; Expressed in bacteria, about 10 kDa; also called His-tagged PI3K/p85-SH3 protein; HIS-PI3K-p85/SH3 domain; not shown: His tag and vector-encoded residues of pET-30a(+)
Control GST-protein
  binding result: no binding (tested: 3 mg/mL of His-tagged PI3K/p85-SH3)
GST-obscurin-PH
  Kd: ~50 nM
